The record followed here is patent US4757082A, “Method of inhibiting aromatase” (Eli Lilly and Company, priority 1984, dated 1988).

pEC50: −log10 of the molar value.

The experiment deals with T1, aromatase (Rattus norvegicus, UniProt P22443).
T1 construct: ovarian microsomes are obtained from rats treated with pregnant mares serum gonadotropin; from tissue; host or cells: ovarian microsomes from rats treated with pregnant mares serum gonadotropin
T1 sequence (P22443 1-508): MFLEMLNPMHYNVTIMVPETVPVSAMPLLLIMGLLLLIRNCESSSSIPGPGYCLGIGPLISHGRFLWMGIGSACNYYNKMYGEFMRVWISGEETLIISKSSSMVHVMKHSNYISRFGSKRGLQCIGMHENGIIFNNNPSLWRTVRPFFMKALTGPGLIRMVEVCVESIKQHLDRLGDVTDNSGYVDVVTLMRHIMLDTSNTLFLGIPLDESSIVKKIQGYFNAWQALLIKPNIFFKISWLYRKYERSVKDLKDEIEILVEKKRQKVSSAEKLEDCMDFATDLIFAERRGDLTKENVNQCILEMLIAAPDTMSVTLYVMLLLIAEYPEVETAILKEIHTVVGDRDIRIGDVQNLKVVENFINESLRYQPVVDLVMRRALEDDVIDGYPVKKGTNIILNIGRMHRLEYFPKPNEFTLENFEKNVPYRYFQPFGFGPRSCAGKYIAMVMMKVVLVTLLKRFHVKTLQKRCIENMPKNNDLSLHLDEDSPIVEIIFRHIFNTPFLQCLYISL
As to the kind of experiment: Aromatase inhibition in the rat ovarian microsome assay. Type of experiment: biochemical. To be noted: rat ovarian microsomes; substrate (androstenedione) concentration 0.1 μM.

Method: In this test system, ovarian microsomes are obtained from rats treated with pregnant mares serum gonadotropin. Test compounds are added to reaction vials containing 0.1 μM 4-androstene-3,17-dione, 100,000 dpm 1,2[^3 H]-androstenedione, the microsomes and a NADPH generating system. The concentrations of the inhibitors tested ranged between 0.005 and 10 μM.

In general, pEC50 refers to the EC50 on a negative log10 scale, so that one unit is a factor of ten. Read a high pEC50 as a low EC50. `c1ccc2c(c1)CCc1ccccc1C2n1ccnc1` [1-(10,11-dihydro-5H--dibenzo-[a,d]cyclohepten-5-yl)-1H--imidazole nitrate] showed a pEC50 of 5.70.
